# Experimental data: PMC9223764, “In Vitro Selection and Characterization of HIV-1 Variants with Increased Resistance to LP-40, Enfuvirtide-Based Lipopeptide Inhibitor” (International Journal of Molecular Sciences, 2022)
# Several values for one entry are separate records, joined by “and”; a condition that tells them apart may be missing. Equal values may be shown once. Read-outs that look alike come from different tables or passages of the source. Where a SMILES comes first, the peptide text is derived from it. The star is where a group is joined. Palmitoyl = CCCCCCCCCCCCCCCC(=O)*
# Assays:
# Type in all cases: cell-based
# [1] = system: T20-V4 pseudovirus (HIV-1 NL4-3 Env mutant); conditions: for IC50: T20-V4 (Env selected at T20 12 µM, P9), TZM-bl cells, 48 h, luciferase, mean ± SD, triplicate, repeated three times
# Description: (§1) To simulate the sequence changes of viral resistance genes under different drug concentration pressures, we constructed the Env genes under different drug concentration pressures in the PCDNA3.1 vector and obtained a series of mutations. […] T20-V 6~12, T20-V 13~14, and T 20-V 15~18 were constructed at concentrations of 200 µM (P21), 400 µM (P24), and 2000 µM (P32), respectively. Similarly, the LP-40 pressure concentrations were 0.3 µM, 8 µM, 20 µM, and 200 µM, respectively, and the constructs were numbered LP40-V 1~5, LP40-V 6~8, LP40-V 9~11, and LP40-V 12~15. Resistance mutations will cause varying levels of damage to the function of the pseudoviral envelope proteins. Here, we explored how serial mutations affect the function of viral envelope proteins. Based on this problem, we performed a single round of quantitative P24-infection experiments, packaging the pseudovirus with a previously constructed series of mutant plasmids. We compared the invasion ability of the HIV-1 wild-type and mutant pseudoviruses toward target cells under the same P24 content (using the invasion capacity of each subtype as 100%).
# (§2) The infectivity of HIV Env mutants and the inhibitory activities of membrane fusion inhibitors on mutants in TZM-bl cells were measured using a single-cycle infection assay as described previously. Briefly, the HIV pseudovirus was packed using an Env-coding plasmid, and pSG3ΔEnv was co-transfected into HEK293T cells. pSG3ΔEnv encodes an Env-defective, luciferase-expressing HIV-1 genome. After the pseudoviruses were harvested and filtrated, the amount of pseudoviruses was fixed via P24 antigen, and their infectivity was determined in TZM-bl cells. In order to measure the inhibitory activities of the inhibitors, inhibitors diluted serially 3-fold were mixed with an equal volume of pseudoviruses, and then 100 µL 1 × 10^5/mL TZM-bl cells were added to the mixture and incubated at 37 °C with 5% CO2 for 48 h. After that, TZM-bl cells were lysed using reporter lysis buffer, and IC50 values were calculated according to luciferase activity measured by luciferase assay reagents and a luminescence counter (Promega, Madison, WI, USA).
# [2] = system: T20-V3 pseudovirus (HIV-1 NL4-3 Env mutant); conditions: for IC50: T20-V3 (Env selected at T20 12 µM, P9), TZM-bl cells, 48 h, luciferase, mean ± SD, triplicate, repeated three times
# Description: as §1, §2
# [3] = system: LP40-V9 pseudovirus (HIV-1 NL4-3 Env mutant); conditions: for IC50: LP40-V9 (Env selected at LP-40 20 µM), TZM-bl cells, 48 h, luciferase, mean ± SD, triplicate, repeated three times
# Description: as §1, §2
# [4] = system: LP40-V1 pseudovirus (HIV-1 NL4-3 Env mutant); conditions: for IC50: LP40-V1 (Env selected at LP-40 0.3 µM), TZM-bl cells, 48 h, luciferase, mean ± SD, triplicate, repeated three times
# Description: as §1, §2
# [5] = system: T20-V8 pseudovirus (HIV-1 NL4-3 Env mutant); conditions: T20-V8 (Env selected at T20 200 µM, P21); TZM-bl cells, 48 h, luciferase; mean ± SD, triplicate, repeated three times
# Description: as §1, §2
# [6] = system: LP40-V11 pseudovirus (HIV-1 NL4-3 Env mutant); conditions: for IC50: LP40-V11 (Env selected at LP-40 20 µM), TZM-bl cells, 48 h, luciferase, mean ± SD, triplicate, repeated three times
# Description: as §1, §2
# [7] = system: LP40-V14 pseudovirus (HIV-1 NL4-3 Env mutant); conditions: for IC50: LP40-V14 (Env selected at LP-40 200 µM), TZM-bl cells, 48 h, luciferase, mean ± SD, triplicate, repeated three times
# Description: as §1, §2
# [8] = system: HIV-1 NL4-3 gp41 L33S pseudovirus; conditions: for IC50: L33S, TZM-bl cells, 48 h, luciferase, mean ± SD, triplicate, repeated three times; for Fold change in IC50: L33S relative to WT NL4-3
# Description: (§3) Viral RNA was extracted from the supernatant, and, after reverse transcription, the cDNA was amplified using PCR. These amplified DNA were connected to the T-Easy vector and transformed to Trans 2-Blue Chemically Competent Cells. These sequences were determined via sequencing. The expression plasmids, which contained different HIV-1NL4-3 Env mutants, were constructed using DNA assembly (NEBuilder® HiFi DNA Assembly Master Mix). In brief, two primers were used to amplify Env, and the other two primers were used to amplify the vector fragment. The products of PCR were purified with a 20–25 bp overlap in the terminal of Env and the vector fragment Env and the vector fragment were added to the DNA assembly master mix at […] for 15 min and then transformed to Trans 2-Blue Chemically Competent Cells. Additionally, a single-point mutation was generated using double-stranded DNA templates and a selection of mutants with a restriction enzyme (DpnI) as described previously.
# as §2
# [9] = system: HIV-1 NL4-3 gp41 I37T pseudovirus; conditions: for IC50: I37T, TZM-bl cells, 48 h, luciferase, mean ± SD, triplicate, repeated three times; for Fold change in IC50: I37T relative to WT NL4-3
# Description: as §3, §2
Compound,IC50 [1] [µM],IC50 [2] [µM],IC50 [3] [µM],IC50 [4] [µM],IC50 [5] [µM],IC50 [6] [µM],IC50 [7] [µM],IC50 ([8]; Table 2) [µM],IC50 ([9]; Table 2) [µM],"Fold change in IC50 ([1]; T20-V4 relative to WT NL4-3, Table 1) [fold]","Fold change in IC50 ([2]; T20-V3 relative to WT NL4-3, Table 1) [fold]","Fold change in IC50 ([3]; LP40-V9 relative to WT NL4-3, Table 1) [fold]","Fold change in IC50 ([4]; LP40-V1 relative to WT NL4-3, Table 1) [fold]","Fold change in IC50 ([6]; LP40-V11 relative to WT NL4-3, Table 1) [fold]","Fold change in IC50 ([7]; LP40-V14 relative to WT NL4-3, Table 1) [fold]",Fold change in IC50 ([8]; Table 2),Fold change in IC50 ([8]; Table 3) [fold],Fold change in IC50 ([9]; Table 2) [fold],Fold change in IC50 ([9]; Table 3) [fold]
Enfuvirtide,0.0531 ± 0.0149,0.0789 ± 0.0121,1.27 ± 0.315,0.0598 ± 0.0163,5.28 ± 1.1,4.35 ± 0.522,4.91 ± 2,3.45 ± 0.564,0.711 ± 0.157,–,–,–,–,–,–,–,–,–,–
CCCCCCCCCCCCCCCC(=O)NCCCC[C@H](NC(=O)[C@H](CC(=O)O)NC(=O)[C@H](CC(C)C)NC(=O)[C@H](CCC(=O)O)NC(=O)[C@H](CC(C)C)NC(=O)[C@H](CC(C)C)NC(=O)[C@H](CCC(=O)O)NC(=O)[C@H](CCC(N)=O)NC(=O)[C@H](CCC(=O)O)NC(=O)[C@H](CC(N)=O)NC(=O)[C@H](CCCCN)NC(=O)[C@H](CCC(=O)O)NC(=O)[C@H](CCC(N)=O)NC(=O)[C@H](CCC(N)=O)NC(=O)[C@H](CC(N)=O)NC(=O)[C@H](CCC(N)=O)NC(=O)[C@H](CO)NC(=O)[C@H](CCC(=O)O)NC(=O)[C@H](CCC(=O)O)NC(=O)[C@@H](NC(=O)[C@H](CC(C)C)NC(=O)[C@H](CO)NC(=O)[C@H](Cc1c[nH]cn1)NC(=O)[C@@H](NC(=O)[C@H](CC(C)C)NC(=O)[C@H](CO)NC(=O)[C@@H](NC(=O)[C@H](Cc1ccc(O)cc1)NC(C)=O)[C@@H](C)O)[C@@H](C)CC)[C@@H](C)CC)C(N)=O [LP-40] (Ac-YTSLIHSLIEESQNQQEKNEQELLELDK(Palmitoyl)-NH2),0.0766 ± 0.0197,0.0705 ± 0.00856,2.89 ± 0.431,0.0449 ± 0.00439,> 6.25,3.33 ± 0.978,> 6.25,2.12 ± 0.534,0.515 ± 0.0743,2.58,2.38,97.22,1.51,112.32,>227.43,67 fold and 67.08 fold,77.43,16.33,18.85
